# In patent publication US20090291938A1 (TAKEDA PHARMACEUTICAL COMPANY LIMITED, priority 2007, published 2009):
# System: HT29 human colorectal adenocarcinoma cell line
# Assay: cell proliferation assay (Cell Titer-Glo luminescent cell viability assay)
# Assay type: cell-based
# Settings: HT-29, cell proliferative assay, HT29 cells, 72 hr treatment, values given as ranges, read-out: pIC50 (converted)
# Method in brief: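 Cells grown in DMEM with 10% FBS and exposed to compounds for 72 h. Viability read by CellTiter-Glo luminescence, expressed as percentage of DMSO-treated cells.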
row,SMILES,IC50
1,"CC[C@@]1(C)CN(C2CCCC2)c2nc(Nc3ccc(C(=O)NN4CCN(C)CC4)cc3OC)ncc2N(C)C1=O [Compound 133, (S)-4-(9-cyclopentyl-7-ethyl-5,7-dimethyl-6-oxo-6,7,8,9-tetrahydro-5H-pyrimido[4,5-b][1,4]diazepin-2-ylamino)-3-methoxy-N-(4-methylpiperazin-1-yl)benzamide]",> 10 nM
2,"CC[C@@]1(C)CN(C2CCCC2)c2nc(Nc3ccc(C(=O)N[C@@H]4CCCNC4)cc3OC)ncc2N(C)C1=O [Compound 134, 4-((S)-9-cyclopentyl-7-ethyl-5,7-dimethyl-6-oxo-6,7,8,9-tetrahydro-5H-pyrimido[4,5-b][1,4]diazepin-2-ylamino)-3-methoxy-N-((R)-piperidin-3-yl)benzamide]",3.16 to 10 nM
3,"CCC1(C)CN(C2CCCCC2)c2nc(Nc3ccc(C(=O)NC4CN(C)C4)cc3OC)ncc2N(C)C1=O (stereo not shown) [Compound 140, 4-(9-cyclohexyl-7-ethyl-5,7-dimethyl-6-oxo-6,7,8,9-tetrahydro-5H-pyrimido[4,5-b][1,4]diazepin-2-ylamino)-3-methoxy-N-(1-methylazetidin-3-yl)benzamide]",3.16 to 10 nM
4,"CCC1(C)CN(C2CCCCC2)c2nc(Nc3ccc(C(=O)N[C@H]4CC[C@H](O)CC4)cc3OC)ncc2N(C)C1=O (stereo partly drawn) [Compound 141, 4-(9-cyclohexyl-7-ethyl-5,7-dimethyl-6-oxo-6,7,8,9-tetrahydro-5H-pyrimido[4,5-b][1,4]diazepin-2-ylamino)-N-((1R,4R)-4-hydroxycyclohexyl)-3-methoxybenzamide]",3.16 to 10 nM
5,"CC[C@]1(C)CN(C2CCCCC2)c2nc(Nc3ccc(C(=O)NC4CN(C)C4)cc3OC)ncc2N(C)C1=O [Compound 145, (R)-4-(9-cyclohexyl-7-ethyl-5,7-dimethyl-6-oxo-6,7,8,9-tetrahydro-5H-pyrimido[4,5-b][1,4]diazepin-2-ylamino)-3-methoxy-N-(1-methylazetidin-3-yl)benzamide]",3.16 to 10 nM
6,"CC[C@@]1(C)CN(C2CCCCC2)c2nc(Nc3ccc(C(=O)N[C@@H]4CCCNC4)cc3OC)ncc2N(C)C1=O [Compound 148, 4-((S)-9-cyclohexyl-7-ethyl-5,7-dimethyl-6-oxo-6,7,8,9-tetrahydro-5H-pyrimido[4,5-b][1,4]diazepin-2-ylamino)-3-methoxy-N-((R)-piperidin-3-yl)benzamide]",3.16 to 10 nM
7,"CC[C@@]1(C)CN(C2CCCCC2)c2nc(Nc3ccc(C(=O)N[C@H]4CCCNC4)cc3OC)ncc2N(C)C1=O [Compound 149, 4-((S)-9-cyclohexyl-7-ethyl-5,7-dimethyl-6-oxo-6,7,8,9-tetrahydro-5H-pyrimido[4,5-b][1,4]diazepin-2-ylamino)-3-methoxy-N-((S)-piperidin-3-yl)benzamide]",3.16 to 10 nM
8,"CC[C@]1(C)CN(C2CCCCC2)c2nc(Nc3ccc(C(=O)N[C@H]4CCCNC4)cc3OC)ncc2N(C)C1=O [Compound 151, 4-((R)-9-cyclohexyl-7-ethyl-5,7-dimethyl-6-oxo-6,7,8,9-tetrahydro-5H-pyrimido[4,5-b][1,4]diazepin-2-ylamino)-3-methoxy-N-((S)-piperidin-3-yl)benzamide]",3.16 to 10 nM
9,"COc1cc(C(=O)NC2CCN(C)CC2)ccc1Nc1ncc2c(n1)N(C1CCC1)CC(C)(C)C(=O)N2C [Compound 153, 4-(9-cyclobutyl-5,7,7-trimethyl-6-oxo-6,7,8,9-tetrahydro-5H-pyrimido[4,5-b][1,4]diazepin-2-ylamino)-3-methoxy-N-(1-methylpiperidin-4-yl)benzamide]",3.16 to 10 nM
10,"COc1cc(C(=O)NC2CN(C)C2)ccc1Nc1ncc2c(n1)N(C1CCC1)CC(C)(C)C(=O)N2C [Compound 154, 4-(9-cyclobutyl-5,7,7-trimethyl-6-oxo-6,7,8,9-tetrahydro-5H-pyrimido[4,5-b][1,4]diazepin-2-ylamino)-3-methoxy-N-(1-methylazetidin-3-yl)benzamide]",3.16 to 10 nM
11,"COc1cc(C(=O)NC2CCN(C)CC2)ccc1Nc1ncc2c(n1)N(C(C)C)CC(C)(C)C(=O)N2C [Compound 155, 4-(9-isopropyl-5,7,7-trimethyl-6-oxo-6,7,8,9-tetrahydro-5H-pyrimido[4,5-b][1,4]diazepin-2-ylamino)-3-methoxy-N-(1-methylpiperidin-4-yl)benzamide]",3.16 to 10 nM
12,"COc1cc(C(=O)NC2CCN(C)CC2)ccc1Nc1ncc2c(n1)N(C1CCCCC1)CC(C1CC1)C(=O)N2C (stereo not shown) [Compound 156, 4-(9-cyclohexyl-7-cyclopropyl-5-methyl-6-oxo-6,7,8,9-tetrahydro-5H-pyrimido[4,5-b][1,4]diazepin-2-ylamino)-3-methoxy-N-(1-methylpiperidin-4-yl)benzamide]",> 10 nM
13,"COc1cc(C(=O)NC2CN(C)C2)ccc1Nc1ncc2c(n1)N(C1CCCCC1)CC(C1CC1)C(=O)N2C (stereo not shown) [Compound 157, 4-(9-cyclohexyl-7-cyclopropyl-5-methyl-6-oxo-6,7,8,9-tetrahydro-5H-pyrimido[4,5-b][1,4]diazepin-2-ylamino)-3-methoxy-N-(1-methylazetidin-3-yl)benzamide]",> 10 nM
14,"COc1cc(C(=O)NN2CCN(C)CC2)ccc1Nc1ncc2c(n1)N(C1CCCCC1)CC1(CC1)C(=O)N2C [Compound 170, 4-(9′-cyclohexyl-5′-methyl-6′-oxo-5′,6′,8′,9′-tetrahydrospiro[cyclopropane-1,7′-pyrimido[4,5-b][1,4]diazepine]-2′-ylamino)-3-methoxy-N-(4-methylpiperazin-1-yl)benzamide]",< 1 nM

# Results, then the compound that gave them:
row,IC50,SMILES
1,1 to 2.51 nM,"COc1cc(C(=O)NC2CN(C)C2)ccc1Nc1ncc2c(n1)N(C1CCCC1)CC1(CC1)C(=O)N2C [Compound 163, 4-(9′-cyclopentyl-5′-methyl-6′-oxo-5′,6′,8′,9′-tetrahydrospiro[cyclopropane-1,7′-pyrimido[4,5-b][1,4]diazepine]-2′-ylamino)-3-methoxy-N-(1-methylazetidin-3-yl)benzamide]"
2,1 to 2.51 nM,"COc1cc(C(=O)N[C@H]2CCCN(C)C2)ccc1Nc1ncc2c(n1)N(C1CCCC1)CC1(CC1)C(=O)N2C [Compound 164, (S)-4-(9′-cyclopentyl-5′-methyl-6′-oxo-5′,6′,8′,9′-tetrahydrospiro-[cyclopropane-1,7′-pyrimido[4,5-b][1,4]diazepine]-2′-ylamino)-3-methoxy-N-(1-methylpiperidin-3-yl)benzamide]"
3,1 to 2.51 nM,"COc1cc(C(=O)N[C@@H]2CCCN(C)C2)ccc1Nc1ncc2c(n1)N(C1CCCC1)CC1(CC1)C(=O)N2C [Compound 165, (R)-4-(9′-cyclopentyl-5′-methyl-6′-oxo-5′,6′,8′,9′-tetrahydrospiro[cyclopropane-1,7′-pyrimido[4,5-b][1,4]diazepine]-2′-ylamino)-3-methoxy-N-(1-methylpiperidin-3-yl)benzamide]"
4,1 to 2.51 nM,"COc1cc(C(=O)N[C@H]2CCCNC2)ccc1Nc1ncc2c(n1)N(C1CCCC1)CC1(CC1)C(=O)N2C [Compound 166, (S)-4-(9′-cyclopentyl-5′-methyl-6′-oxo-5′,6′,8′,9′-tetrahydrospiro[cyclopropane-1,7′-pyrimido[4,5-b][1,4]diazepine]-2′-ylamino)-3-methoxy-N-(piperidin-3-yl)benzamide]"
5,3.16 to 10 nM,"COc1cc(C(=O)N[C@H]2CCN(C)C2)ccc1Nc1ncc2c(n1)N(C1CCCC1)CC1(CC1)C(=O)N2C [Compound 167, (S)-4-(9′-cyclopentyl-5′-methyl-6′-oxo-5′,6′,8′,9′-tetrahydrospiro[cyclopropane-1,7′-pyrimido[4,5-b][1,4]diazepine]-2′-ylamino)-3-methoxy-N-(1-methylpyrrolidin-3-yl)benzamide]"
6,1 to 2.51 nM,"COc1cc(C(=O)NN2CCN(C)CC2)ccc1Nc1ncc2c(n1)N(C1CCCC1)CC1(CC1)C(=O)N2C [Compound 168, 4-(9′-cyclopentyl-5′-methyl-6′-oxo-5′,6′,8′,9′-tetrahydrospiro[cyclopropane-1,7′-pyrimido[4,5-b][1,4]diazepine]-2′-ylamino)-3-methoxy-N-(4-methylpiperazin-1-yl)benzamide]"
7,1 to 2.51 nM,"COc1cc(C(=O)NC2CCN(C)CC2)ccc1Nc1ncc2c(n1)N(C1CCCCC1)CC1(CC1)C(=O)N2C [Compound 169, 4-(9′-cyclohexyl-5′-methyl-6′-oxo-5′,6′,8′,9′-tetrahydrospiro[cyclopropane-1,7′-pyrimido[4,5-b][1,4]diazepine]-2′-ylamino)-3-methoxy-N-(1-methylpiperidin-4-yl)benzamide]"
8,< 1 nM,"COc1cc(C(=O)N[C@H]2CCCN(C)C2)ccc1Nc1ncc2c(n1)N(C1CCCCC1)CC1(CC1)C(=O)N2C [Compound 171, (S)-4-(9′-cyclohexyl-5′-methyl-6′-oxo-5′,6′,8′,9′-tetrahydrospiro[cyclopropane-1,7′-pyrimido[4,5-b][1,4]diazepine]-2′-ylamino)-3-methoxy-N-(1-methylpiperidin-3-yl)-benzamide]"
9,1 to 2.51 nM,"COc1cc(C(=O)N[C@@H]2CCCN(C)C2)ccc1Nc1ncc2c(n1)N(C1CCCCC1)CC1(CC1)C(=O)N2C [Compound 172, (R)-4-(9′-cyclohexyl-5′-methyl-6′-oxo-5′,6′,8′,9′-tetrahydrospiro[cyclopropane-1,7′-pyrimido[4,5-b][1,4]diazepine]-2′-ylamino)-3-methoxy-N-(1-methylpiperidin-3-yl)benzamide]"
10,1 to 2.51 nM,"COc1cc(C(=O)NC2CN(C)C2)ccc1Nc1ncc2c(n1)N(C1CCCCC1)CC1(CC1)C(=O)N2C [Compound 173, 4-(9′-cyclohexyl-5′-methyl-6′-oxo-5′,6′,8′,9′-tetrahydrospiro[cyclopropane-1,7′-pyrimido[4,5-b][1,4]diazepine]-2′-ylamino)-3-methoxy-N-(1-methylazetidin-3-yl)benzamide]"
11,1 to 2.51 nM,"COc1cc(C(=O)N[C@H]2CCCNC2)ccc1Nc1ncc2c(n1)N(C1CCCCC1)CC1(CC1)C(=O)N2C [Compound 174, (S)-4-(9′-cyclohexyl-5′-methyl-6′-oxo-5′,6′,8′,9′-tetrahydrospiro[cyclopropane-1,7′-pyrimido[4,5-b][1,4]diazepine]-2′-ylamino)-3-methoxy-N-(piperidin-3-yl)benzamide]"
